The values that follow come from article PMC5175340, “eIF2β is critical for eIF5-mediated GDP-dissociation inhibitor activity and translational control” (Nucleic Acids Research, 2016).

For one assay, the system named is sif285-1 GCN2 cells. Kind of assay: Growth on SD ±3AT media. The assay is classed as cell-based, yeast. The note with it: sif285-1 cells transformed with WT GCN2 plasmid. As to the method: Strains used and generated in this work are derivatives of S288c and are described in Supplementary Table S1. Cell growth was performed at 30°C in standard yeast rich (YPD), synthetic defined minimal (SD) or synthetic complete (SC) media lacking nutrients for plasmid selection. All media have 2% glucose as a carbon source ([25]). 3-Amino-1,2,4-triazole (3AT) (Fluka) was added where indicated. For serial dilution growth assays, cells were grown to A600 = 0.6, diluted to 0.1 and 2–3 μl of 10-fold dilutions were spotted on the agar surface. Plasmid shuffling to select for loss of URA3 plasmids employed 5-fluoro-orotic acid (5-FOA; Sigma-Aldrich), while loss of LEU2 plasmids relied on passive loss during unselected growth and subsequent screening. Mating type switching employed HO plasmid pAV1621 (pHO1.5) followed by 5-FOA, sporulation, tetrad dissection and mating type testing ([25]). gcd6Δ sui3Δ double deletion strains (GP7216-19) were made by polymerase chain reaction (PCR) amplifying gcd6Δ::KanMX cassette from a BY4743 gcd6Δ::KanMX/GCD6 diploid strain (GP4146) and transforming the DNA fragment into sui3Δ gcn2Δ [SUI3-Flag TRP1] [GCD6 URA3] strains to generate G418 resistant cells unable to lose the covering GCD6 plasmid upon 5-FOA selection.

Assay [1] has as its system HIS4-LacZ. Further details: method as in PMID 16153175. As to conditions: by GAAC via increased GCN4 translation in the presence of 3AT; cited from earlier work.
Assay [2] has as its system HIS4-LacZ. Kind of assay: β-galactosidase assay of HIS4-LacZ fusion. The assay is classed as cell-based, yeast. As to conditions: sif285-1 cells bearing GCD6, 3AT treatment. Here is the method: Measurement of β-galactosidase levels from a HIS4-LacZ fusion genomically-integrated at ura3-52 was performed exactly as described ([36]) using whole protein extracts from cells grown in SC medium lacking histidine and uracil or following addition of 10 mM 3AT for 6 h. Units are nmole o-nitrophenyl-β-D-galacto-pyranoside cleaved/min/μg total protein ± SE, n = 3.

A further assay deals with T1, eIF2 WT (Saccharomyces cerevisiae, UniProt P32481).
T1 construct: gene GCD11; purified apo-eIF2 heterotrimer; V5-SUI3 (N-terminal V5 tag on eIF2β), SUI2, His6-GCD11; nucleotide-free after EDTA dialysis
T1 sequence (P32481 whole entry): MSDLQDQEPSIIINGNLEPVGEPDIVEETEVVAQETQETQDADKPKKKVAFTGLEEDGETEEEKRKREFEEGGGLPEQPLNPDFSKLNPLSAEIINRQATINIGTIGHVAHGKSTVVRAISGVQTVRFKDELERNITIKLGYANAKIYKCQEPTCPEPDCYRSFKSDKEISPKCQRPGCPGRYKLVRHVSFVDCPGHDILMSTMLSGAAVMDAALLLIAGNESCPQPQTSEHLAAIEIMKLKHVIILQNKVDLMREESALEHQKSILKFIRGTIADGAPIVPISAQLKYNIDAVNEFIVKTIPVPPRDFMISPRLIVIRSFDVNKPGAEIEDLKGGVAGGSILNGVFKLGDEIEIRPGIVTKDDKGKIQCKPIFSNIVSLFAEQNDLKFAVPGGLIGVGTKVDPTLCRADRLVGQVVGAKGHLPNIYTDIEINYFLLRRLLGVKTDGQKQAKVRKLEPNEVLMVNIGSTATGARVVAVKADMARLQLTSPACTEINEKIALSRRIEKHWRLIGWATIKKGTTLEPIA
T1 sequence (P20459 whole entry partner): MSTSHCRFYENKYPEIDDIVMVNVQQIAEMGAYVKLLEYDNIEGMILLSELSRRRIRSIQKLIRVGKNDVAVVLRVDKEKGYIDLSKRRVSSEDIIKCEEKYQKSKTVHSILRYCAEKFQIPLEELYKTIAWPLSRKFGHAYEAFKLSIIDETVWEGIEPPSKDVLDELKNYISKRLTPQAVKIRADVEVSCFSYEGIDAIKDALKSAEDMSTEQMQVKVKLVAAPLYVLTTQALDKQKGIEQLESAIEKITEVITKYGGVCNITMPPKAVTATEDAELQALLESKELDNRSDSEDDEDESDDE
T1 sequence (P09064 whole entry partner): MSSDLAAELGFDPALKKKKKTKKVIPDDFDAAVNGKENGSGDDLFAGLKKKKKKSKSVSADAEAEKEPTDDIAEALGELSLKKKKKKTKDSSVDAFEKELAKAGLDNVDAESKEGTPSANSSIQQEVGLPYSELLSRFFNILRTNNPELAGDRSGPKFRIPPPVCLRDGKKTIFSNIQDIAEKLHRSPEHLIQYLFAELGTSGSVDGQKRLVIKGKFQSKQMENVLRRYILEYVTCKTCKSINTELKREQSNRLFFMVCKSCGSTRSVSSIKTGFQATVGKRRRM
Kind of assay: Steady-state fluorescence titration of 100 nM BODIPY-FL nucleotide with increasing apo-eIF2 (490 nm excitation, 509 nm emission) in 30 mM HEPES, 100 mM KCl, 10 mM MgCl2, pH 7.4, at room temperature, fitted to a single-site binding model. As to the method: (§1) To assay nucleotide affinity, fluorescence intensity of 100 nM of BODIPY-FL-GDP or BODIPY-FL-GTP (Thermo Fisher Scientific) in 180 μl of assay buffer (30 mM HEPES, 100 mM KCl, 10 mM MgCl2, pH 7.4) was measured using a Fluoromax-4 spectrophotometer (Horiba) (490 nm excitation, 509 nm emission). Yeast Met–tRNAi was assayed in a similar manner using 20 nM BOP-N-Met–tRNAi (tRNA probes) but with the addition of 1 mM GTP. Change in fluorescence intensity was measured upon addition of increasing amounts of apo–eIF2, incubating for 5 min at room temperature each time. Each measurement was blanked against a control without nucleotide to account for any affect of eIF2 and data were corrected for dilution effects caused by volume addition and normalized to starting values before being fitted to a single site binding model: y = 1 + [(ΔFmax - 1)*(x/(x + Kd))].
(§2) eIF2 was purified from yeast strains GP7145 and GP7146 expressing V5-sui3-E189K or the V5-SUI3 derivatives of eIF2β by sequential nickel affinity, HiTrap Heparin and HiTrap Q sepharose chromatography as described ([14]). To obtain apo–eIF2 free from nucleotide, eIF2 was dialysed with EDTA (30 mM HEPES, 100 mM KCl, 1 mM DTT, 1 mM EDTA, 10% glycerol, pH 7.4) then with magnesium (30 mM HEPES, 100 mM KCl, 1 mM DTT, 0.1 mM MgCl2, 10% glycerol, pH 7.4).
(§3) Figure 4. […] (A) Affinity (Kd) of GDP, GTP and Met–tRNAi to purified WT and mutant (β E189K) apo–eIF2 complexes measured by monitoring the fluorescence intensity of 100 nM BODIPY-FL-GDP (left), 100 nM BODIPY-FL-GTP (middle) or 20 nM BOP-N-Met–tRNAi with 1 mM GTP (right). […] K1/2 and Kmax values were determined from curve fitting y = [(Kmax × x)/(K1/2 + x)] + c. (C) Western blotting of IP of Flag-eIF2β, Flag-E189K and an untagged control from cells showing its co-association with known binding proteins. Quantification of at least three repeats using Li-Cor fluorescent secondary antibodies ±SE. […] Tif5 is indicated with an arrow, ‘♦’ marks a non-specific band.

Assay [3] addresses T2, eIF2 (β E189K), eIF2βE189K (Saccharomyces cerevisiae, UniProt P09064+P32481, E189K).
T2 construct: purified apo-eIF2 heterotrimer; V5-sui3-E189K (N-terminal V5 tag on eIF2β), SUI2, His6-GCD11; nucleotide-free after EDTA dialysis
The description is as above. As to the method: as §1, §2, §3

The next assay has as its target Met–tRNAi. Kind of assay: Steady state fluorescence, BOP-N-Met-tRNAi binding to apo-eIF2. The arrangement: species or system Yeast. The note with it: 20 nM BOP-N-Met-tRNAi with 1 mM GTP, purified apo-eIF2. Here is the method: as §1
A short description of assay [4]: GDP dissociation assay, intrinsic BODIPY-GDP off-rate. The assay is classed as binding. As to conditions: 20 nM eIF2•BODIPY-GDP, 1 mM unlabelled GDP, 0 nM eIF2B. As to the method: (§4) Fluorescent eIF2•BODIPY-GDP binary complex was formed by incubating apo–eIF2 with a 2× excess of BODIPY-FL-GDP (Thermo Fisher Scientific) for 20 min at room temperature. Excess nucleotide was removed by passing through a G-50 sephadex column (GE Healthcare). Labelling efficiency was calculated to exceed 90%. […] K1/2 and Kmax values were determined from curve fitting y = [(Kmax × x)/(K1/2 + x)] + c.

The subject of a further assay is eIF5. Kind of assay: eIF5 GDI activity, BODIPY-GDP release with GST-eIF5. The assay is classed as biochemical, yeast. As to conditions: eIF2•BODIPY-GDP 20 nM, purified eIF5 0–80 nM. As to the method: as §4
We therefore decided to assess eIF5 GDI activity directly. We monitored eIF5 GDI activity by incubating eIF2•BODIPY-GDP (20 nM) with purified eIF5 (0–80 nM) and recorded the fluorescence change upon dissociation of BODIPY-GDP from eIF2.

Assay [5] has as its target eIF2^βE189K (V5-eIF2β-E189K, eIF2α, His6-eIF2γ), purified (S. cerevisiae) (UniProt P09064).

T2 sequence (P09064 whole entry E189K): as the sequence (P09064 whole entry partner) above, with E189K counted along it
T2 sequence (P32481 whole entry): as the sequence (P32481 whole entry) above
T2 sequence (P20459 whole entry, stated change not applied, further chain): as the sequence (P20459 whole entry partner) above
Chain of eIF2^βE189K (V5-eIF2β-E189K, eIF2α, His6-eIF2γ), purified (S. cerevisiae) (P09064 whole entry E189K, chain 1 of 3): as the sequence (P09064 whole entry partner) above, with E189K counted along it
Chain of eIF2^βE189K (V5-eIF2β-E189K, eIF2α, His6-eIF2γ), purified (S. cerevisiae) (chain, as listed by the source E189K E189K, chain 2 of 3): as the sequence (P20459 whole entry partner) above
Chain of eIF2^βE189K (V5-eIF2β-E189K, eIF2α, His6-eIF2γ), purified (S. cerevisiae) (chain, as listed by the source E189K E189K, chain 3 of 3): as the sequence (P32481 whole entry) above
Chain of eIF5 (P38431 whole entry): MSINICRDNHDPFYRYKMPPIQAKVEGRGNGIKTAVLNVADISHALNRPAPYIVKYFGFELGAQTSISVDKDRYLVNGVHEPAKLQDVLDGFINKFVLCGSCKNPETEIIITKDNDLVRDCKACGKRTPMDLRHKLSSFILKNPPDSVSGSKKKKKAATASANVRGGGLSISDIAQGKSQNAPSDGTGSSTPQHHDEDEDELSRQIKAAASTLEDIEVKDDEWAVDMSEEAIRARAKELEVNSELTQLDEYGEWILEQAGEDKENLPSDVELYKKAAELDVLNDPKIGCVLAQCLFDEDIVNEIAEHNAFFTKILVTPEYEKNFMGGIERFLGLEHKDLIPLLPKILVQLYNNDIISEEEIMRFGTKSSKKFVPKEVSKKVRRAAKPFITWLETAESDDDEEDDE
Chain of eIF5 (P32481 whole entry, further chain): as the sequence (P32481 whole entry) above
Chain of eIF5 (P20459 whole entry, further chain): as the sequence (P20459 whole entry partner) above

`Nc1nc[nH]n1` [3AT, 3-Amino-1,2,4-triazole]: the cell growth entry with sif285-1 GCN2 cells is reported as “impaired”. Further, the HIS4 transcription derepression in the assay on HIS4-LacZ [1] was about 2 fold. Also, in the assay with HIS4-LacZ [2], the HIS4-LacZ expression result is reported as “not derepressed”.
Take `Cc1cc(C)n2c1C=C1C=CC(CCC(=O)NCCNC(=O)OC3C(COP(=O)(O)OP(=O)(O)O)OC(n4cnc5c(=O)[nH]c(N)nc54)C3O)=[N+]1[B-]2(F)F` (centres unmarked) [BODIPY-FL-GDP, guanosine 5'-diphosphate, BODIPY FL 2'-(or-3')-O-(N-(2-aminoethyl)urethane)]: the dissociation constant Kd (usually the constant that tells how readily two partners part at equilibrium) at eIF2 WT was 19.1 nM; in assay [3] it was 19.3 nM.
For the compound `Cc1cc(C)n2c1C=C1C=CC(CCC(=O)NCCNC(=O)OC3C(COP(=O)(O)OP(=O)(O)OP(=O)(O)O)OC(n4cnc5c(=O)[nH]c(N)nc54)C3O)=[N+]1[B-]2(F)F` (centres unmarked) [BODIPY-FL-GTP, guanosine 5'-triphosphate, BODIPY FL 2'-(or-3')-O-(N-(2-aminoethyl)urethane)], the Kd on eIF2 WT worked out at 35.2 nM; in assay [3], 32 nM.
On to “eIF2 WT: Wild-type yeast translation initiation factor eIF2 complex purified from an overexpression yeast strain (V5-SUI3)”, for which the dissociation constant (Kd) at Met–tRNAi turned out to be 2.8 nM. Also, in assay [4], the “Koff BODIPY-GDP” value is 0.292 ± 0.025 min⁻¹. The “stabilization of GDP binding by eIF5 (GDI activity)” value with eIF5 is “stabilized by eIF5”.
For “eIF2B, P14741 1-305; P32502 1-381; P09032 1-578; P12754 1-651; P32501 1-712”, the K1/2 of eIF2B for GEF-promoted release of BODIPY-FL-GDP from purified eIF2•BODIPY-GDP (20 nM), room temperature in assay [5] was found to be 92.6 nM.
